Reference: publication PMC5855800, “Charged N-terminus of Influenza Fusion Peptide Facilitates Membrane Fusion” (International Journal of Molecular Sciences, 2018)
Several values for one entry are separate records, joined by “and”; a condition that tells them apart may be missing. Equal values may be shown once. Read-outs that look alike come from different tables or passages of the source.

Tests used:
[1] = assay type: binding
[2] = pH 5
[3] = NMR, cited from earlier work
Source text: These values are considerably higher than expected in a hydrophobic environment (8.00 ± 0.03). […] T ...

[4] = POPC vesicles; cited from earlier work
Source text: Since the early observations by Lear and de Grado [2] showing that membrane fusion of lipid vesicles can be accomplished by a short N-terminal synthetic fragment of HA2 subunit, such fusion peptides (HAfp) have been extensively used as full-length hemagglutinin mimicking species in the studies on membrane fusion. […] This is ...

| SMILES | Gibbs binding free energy ΔGx^0 ([1]; pH 5.0) [kcal/mol] | Gibbs binding free energy ΔGx^0 ([1]; pH 7.4) [kcal/mol] | NBD-C6-PE fluorescence lifetime with peptide [2] [ns] | pK for G1 N-terminal amino group ([3]; in the presence of dioleoyl phosphocholine (PC) lipids) | Ability to induce membrane fusion, in words [4] | Difference of ∆G^0 between N-acetylated and unmodified peptide of the same length ([1]; pH 5.0) | Partition coefficient Kx·10^−3 ([1]; 22.0 °C) | pK for G1 N-terminal amino group ([3]; in the presence of dodecylphosphatidyl (DPC) detergents) |
| --- | --- | --- | --- | --- | --- | --- | --- | --- |
| CC[C@H](C)[C@H](NC(=O)[C@H](C)NC(=O)CNC(=O)[C@H](Cc1ccccc1)NC(=O)[C@H](CC(C)C)NC(=O)CNC(C)=O)C(=O)N[C@@H](C)C(=O)NCC(=O)N[C@@H](Cc1ccccc1)C(=O)N[C@H](C(=O)N[C@@H](CCC(=O)O)C(=O)NCC(=O)NCC(=O)N[C@@H](Cc1c[nH]c2ccccc12)C(=O)N[C@@H](CCC(N)=O)C(=O)NCC(=O)N[C@@H](CCSC)C(=O)N[C@H](C(=O)N[C@@H](CC(=O)O)C(=O)NCC(N)=O)C(C)C)[C@@H](C)CC [20Ac] | -7.55 ± 0.048 | -6.86 ± 0.048 | – | – | – | – | – | – |
| CC[C@H](C)[C@H](NC(=O)[C@H](C)NC(=O)CNC(=O)[C@H](Cc1ccccc1)NC(=O)[C@H](CC(C)C)NC(=O)CN)C(=O)N[C@@H](C)C(=O)NCC(=O)N[C@@H](Cc1ccccc1)C(=O)N[C@H](C(=O)N[C@@H](CCC(=O)O)C(=O)NCC(=O)NCC(=O)N[C@@H](Cc1c[nH]c2ccccc12)C(=O)N[C@@H](CCC(N)=O)C(=O)NCC(=O)N[C@@H](CCSC)C(=O)N[C@H](C(=O)N[C@@H](CC(=O)O)C(=O)NCC(N)=O)C(C)C)[C@@H](C)CC [20N+] | -7.84 ± 0.072 | -7.19 ± 0.096 | 6.78 ± 0.20 | 8.69 | able to induce membrane fusion | – | – | – |
| CC[C@H](C)[C@H](NC(=O)[C@H](C)NC(=O)CNC(=O)[C@H](Cc1ccccc1)NC(=O)[C@H](CC(C)C)NC(=O)CNC(C)=O)C(=O)N[C@@H](C)C(=O)NCC(=O)N[C@@H](Cc1ccccc1)C(=O)N[C@H](C(=O)N[C@@H](CCC(=O)O)C(=O)NCC(=O)NCC(=O)N[C@@H](Cc1c[nH]c2ccccc12)C(=O)N[C@@H](CCC(N)=O)C(=O)NCC(=O)N[C@@H](CCSC)C(=O)N[C@H](C(=O)N[C@@H](CC(=O)O)C(=O)NCC(=O)N[C@@H](Cc1c[nH]c2ccccc12)C(=O)N[C@@H](Cc1ccc(O)cc1)C(=O)NCC(N)=O)C(C)C)[C@@H](C)CC [23Ac] | -8.41 ± 0.072 | -8.94 ± 0.048 | 6.66 ± 0.25 | – | – | ~ 2.3 kJ/mol | – | – |
| CC[C@H](C)[C@H](NC(=O)[C@H](C)NC(=O)CNC(=O)[C@H](Cc1ccccc1)NC(=O)[C@H](CC(C)C)NC(=O)CN)C(=O)N[C@@H](C)C(=O)NCC(=O)N[C@@H](Cc1ccccc1)C(=O)N[C@H](C(=O)N[C@@H](CCC(=O)O)C(=O)NCC(=O)NCC(=O)N[C@@H](Cc1c[nH]c2ccccc12)C(=O)N[C@@H](CCC(N)=O)C(=O)NCC(=O)N[C@@H](CCSC)C(=O)N[C@H](C(=O)N[C@@H](CC(=O)O)C(=O)NCC(=O)N[C@@H](Cc1c[nH]c2ccccc12)C(=O)N[C@@H](Cc1ccc(O)cc1)C(=O)NCC(N)=O)C(C)C)[C@@H](C)CC [23N+] | -7.86 ± 0.072 | -7.67 ± 0.17 | 6.55 ± 0.23 | – | – | – | 660 ± 80 and 480 ± 130 | 8.8 |
